In EP0193257A1, “Control of micro-organisms in water-containing compositions” (NIPA LABORATORIES, LTD., priority 1985, dated 1986):

Columns and labels:
[1] = tested on: mixed culture of 7 strains of Gram negative bacteria; experiment: Survivor plate count in shampoo formulation after challenge; type: cell-based; details: shampoo with 0.20% of 30% DCHB in propylene glycol (0.06% active DCHB)
Procedure: A shampoo formulation was prepared to the following formula: […]
Various additions were made to portions of this shampoo in sterile bottles under aseptic conditions, as follows: • 1. 0.20% of 30% DCHB in propylene glycol (0.06% active DCHB) • 2. 0.20% of 30% DCHB in propylene glycol + 0.05% citric acid • 3. 0.05% citric acid (control 1) • 4. No addition (control 2)
Each of these systems was inoculated with a mixed culture of 7 strains of Gram negative bacteria, at an initial inocullum level of 9.0x10^7 colony forming units per g. At 30 mins, 1 hour, 2 hours, 6 hours, 24 hours and 7 days after inoculation the total number of survivors in each sample portion were determined by serial dilution and plate counting; with the following results: […]

[2] = Antimicrobial activity in the presence of proteins; details: proteins such as serum and soluble collagen
[3] = Acute oral toxicity; details: rat, in vivo, rats
Source text: It is important that preservatives added to toiletry, household and pharmaceutical products have a low order of toxicity.

[4] = Storage stability in shampoos, aqueous solutions and creams; type: physicochemical; details: 0.3% (w/w) in shampoos, 25°C, in the light and in dark, seven months
Procedure: Samples of shampoos, aqueous solutions and creams with and without addition of DCHB at 0.3% (w/w) have been stored at 25°C, in the light and in dark, for seven months and have been assessed for visual colour change and for DCHB content, by UV analysis, at regular intervals.

[5] = tested on: mixed culture of 6 species of Gram negative bacteria; experiment: Survivor plate count in commercial shampoo after challenge; type: cell-based
Procedure: A sample of a commercial shampoo preparation (without preservative) was divided into three portions and, to a first portion of this shampoo, the following preservative system was added: • 0.3% (w/w) of a 30% w/w solution of DCHB in propylene glycol (resulting in a concentration of 0.09% of active DCHB).
To a further portion of the unpreserved shampoo, 0.3% (w/w) propylene glycol alone was added to ensure any observed bactericidal effect was due to DCHB.
20g portions of the unpreserved shampoo and the shampoo with the above additions were inoculated with 0.4 ml of a mixed culture of 6 species of Gram negative bacteria (including an isolate from a contaminated shampoo) to give an initial inoculum level of 2.14 x 10^7 colony forming units per g.
The inoculated samples were mixed by Vortex mixer and stored at room temperature. At regular timed intervals after challenge the total number of survivors in each sample portion were determined by serial dilution and plate counting (Nutrient Agar, 32°C) with the following results: […]

[6] = commercial shampoo + 0.3% of 30% DCHB in propylene glycol (0.09% active DCHB)

O=Cc1cc(Cl)c(O)c(Cl)c1 [DCHB, 3,5-Dichloro-4-hydroxybenzaldehyde]
Mixed culture - colony forming units/g after: 1 hour [1]: 3.0x10^6 colony forming units/g
Mixed culture - colony forming units/g after: 2 hours [1]: 6.6x10^5 colony forming units/g
Mixed culture - colony forming units/g after: 6 hours [1]: 7.0x10^5 colony forming units/g
Mixed culture - colony forming units/g after: 24 hours [1]: 8.4x10^4 colony forming units/g
Mixed culture - colony forming units/g after: 7 days [1]: 10 colony forming units/g
Mixed culture - colony forming units/g after: 30 mins ([1]; initial inoculum 9.0x10^7 colony forming units per g): 3.9x10^6 colony forming units/g
antimicrobial activity in the presence of proteins [2]: retaining antimicrobial activity
LD50 [3]: > 5000 mg/kg
DCHB content, by UV analysis (UV absorption readings) [4]: no significant change
visual colour change [4]: no colour changes
Gram negative bacteria - Mixed Culture Colony forming units/g after: 1 day [5, 6]: <10 Colony forming units/g
Gram negative bacteria - Mixed Culture Colony forming units/g after: 7 days [5, 6]: <10 Colony forming units/g
Gram negative bacteria - Mixed Culture Colony forming units/g after: 14 days [5, 6]: <10 Colony forming units/g
Gram negative bacteria - Mixed Culture Colony forming units/g after: 28 days [5, 6]: <10 Colony forming units/g
Gram negative bacteria - Mixed Culture Colony forming units/g after: 3 hours ([5]; commercial shampoo + 0.3% of 30% DCHB in propylene glycol (0.09% active DCHB), initial inoculum 2.14 x 10^7 colony forming units per g): 9.0x10^6 Colony forming units/g
bactericidal effect against normally resistant gram negative bacteria ([5]; shampoo containing 0.3 % of 30 % DCHB in propylene glycol): rapid and satisfactory bactericidal effect
